In ChEMBL document CHEMBL5260848, “Recent advancements in the development of bioactive pyrazoline derivatives” (Eur J Med Chem, 2020):
pIC50, pKi: −log10 of the molar value. Converted amounts (≈) assume the structure as drawn. Counter-ions that a name gives are not always drawn. One block for each compound: values may come before it.

Assays:
[1] = target: T1, Carbonic anhydrase 1 (Homo sapiens, UniProt P00915); experiment: Inhibition of human recombinant CA1
[2] = target: T2, Carbonic anhydrase 2 (Homo sapiens, UniProt P00918); experiment: Inhibition of human recombinant CA2
[3] = target: Carbonic anhydrase 4 (Homo sapiens, UniProt P22748); experiment: Inhibition of human recombinant CA4
[4] = target: T3, Carbonic anhydrase 9 (Homo sapiens, UniProt Q16790)
[5] = target: Acetylcholinesterase (Homo sapiens, UniProt P22303)
[6] = test system: Mus musculus; experiment: Antidiabetic activity against albino mouse assessed as reduction in blood glucose level at 0.2 mmol/Kg relative to control; type: functional; parameters: scale not given: the % may be the effect or the level left
[7] = test system: Candida albicans; experiment: Antifungal activity against Candida albicans by agar dilution method; type: functional
[8] = Antioxidant activity assessed as DPPH radical scavenging activity; type: functional
[9] = target: T1, Carbonic anhydrase 1
[10] = target: T3, Carbonic anhydrase 9; experiment: Inhibition of human CA9
[11] = target: T2, Carbonic anhydrase 2
[12] = test system: Candida albicans; experiment: Antifungal activity against Candida albicans assessed as reduction in microbial growth; type: functional
[13] = test system: Cryptococcus neoformans; experiment: Antifungal activity against Cryptococcus neoformans assessed as reduction in microbial growth; type: functional
[14] = Cytotoxicity against human Panel NCI-58 (58 carcinoma cell lines) cells; type: functional
[15] = test system: MCF7; experiment: Cytotoxicity against human MCF7 cells; type: functional, cell-based
[16] = test system: HSC-2; experiment: Cytotoxicity against human HSC-2 cells assessed as reduction in cell viability incubated for 48 hrs by MTT assay; type: functional
[17] = test system: HSC-3; experiment: Cytotoxicity against human HSC-3 cells assessed as reduction in cell viability incubated for 48 hrs by MTT assay; type: functional
[18] = Cytotoxicity against human HGF cells assessed as reduction in cell viability incubated for 48 hrs by MTT assay; type: functional
[19] = Cytotoxicity against human HPLF cells assessed as reduction in cell viability incubated for 48 hrs by MTT assay; type: functional
[20] = Cytotoxicity against human HPC cells assessed as reduction in cell viability incubated for 48 hrs by MTT assay; type: functional
[21] = target: T3, Carbonic anhydrase 9; experiment: Inhibition of human CA9 preincubated for 15 mins by phenol red dye based stopped flow CO2 hydration assay
[22] = target: Carbonic anhydrase 12 (Homo sapiens, UniProt O43570); experiment: Inhibition of human CA12 preincubated for 15 mins by phenol red dye based stopped flow CO2 hydration assay
[23] = test system: Staphylococcus aureus; experiment: microbe, parasite or virus in culture
[24] = test system: Ca9-22; experiment: Cytotoxicity against human Ca9-22 cells assessed as reduction in cell viability incubated for 48 hrs by MTT assay; type: functional

Chain of Carbonic anhydrase 12 (O43570 whole entry): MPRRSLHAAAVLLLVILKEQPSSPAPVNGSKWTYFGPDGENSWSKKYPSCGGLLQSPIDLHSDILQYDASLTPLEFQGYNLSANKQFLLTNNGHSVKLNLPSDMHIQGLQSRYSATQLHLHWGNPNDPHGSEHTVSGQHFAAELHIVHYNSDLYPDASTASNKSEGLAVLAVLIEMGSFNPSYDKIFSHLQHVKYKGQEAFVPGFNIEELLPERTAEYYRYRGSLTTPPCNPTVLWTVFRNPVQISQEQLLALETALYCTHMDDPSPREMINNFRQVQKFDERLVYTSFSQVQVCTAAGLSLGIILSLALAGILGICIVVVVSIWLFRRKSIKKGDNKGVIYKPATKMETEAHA
Chain of Acetylcholinesterase (P22303 whole entry): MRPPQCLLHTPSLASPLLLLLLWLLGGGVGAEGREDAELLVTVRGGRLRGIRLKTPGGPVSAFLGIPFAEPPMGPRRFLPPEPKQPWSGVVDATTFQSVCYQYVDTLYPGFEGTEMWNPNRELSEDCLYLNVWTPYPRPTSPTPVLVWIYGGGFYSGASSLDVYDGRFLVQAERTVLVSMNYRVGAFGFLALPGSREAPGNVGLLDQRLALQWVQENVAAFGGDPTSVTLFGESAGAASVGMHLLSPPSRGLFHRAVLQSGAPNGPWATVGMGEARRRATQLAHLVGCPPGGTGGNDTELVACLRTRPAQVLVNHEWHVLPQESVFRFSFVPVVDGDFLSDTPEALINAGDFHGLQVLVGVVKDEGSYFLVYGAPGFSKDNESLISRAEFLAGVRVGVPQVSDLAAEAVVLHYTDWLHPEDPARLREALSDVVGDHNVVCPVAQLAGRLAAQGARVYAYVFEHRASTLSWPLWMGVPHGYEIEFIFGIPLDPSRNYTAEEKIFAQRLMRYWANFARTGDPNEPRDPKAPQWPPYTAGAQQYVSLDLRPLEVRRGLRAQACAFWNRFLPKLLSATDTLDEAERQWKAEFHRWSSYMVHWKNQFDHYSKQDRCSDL
Chain of Carbonic anhydrase 4 (P22748 whole entry): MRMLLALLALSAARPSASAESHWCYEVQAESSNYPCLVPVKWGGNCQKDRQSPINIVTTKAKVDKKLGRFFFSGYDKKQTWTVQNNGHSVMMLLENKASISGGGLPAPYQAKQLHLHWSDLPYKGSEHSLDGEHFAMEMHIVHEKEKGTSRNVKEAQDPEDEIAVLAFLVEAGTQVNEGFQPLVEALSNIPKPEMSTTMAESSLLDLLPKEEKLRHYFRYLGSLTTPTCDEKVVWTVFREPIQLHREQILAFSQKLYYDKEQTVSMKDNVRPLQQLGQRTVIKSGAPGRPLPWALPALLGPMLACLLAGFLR
T1 sequence (P00915 whole entry): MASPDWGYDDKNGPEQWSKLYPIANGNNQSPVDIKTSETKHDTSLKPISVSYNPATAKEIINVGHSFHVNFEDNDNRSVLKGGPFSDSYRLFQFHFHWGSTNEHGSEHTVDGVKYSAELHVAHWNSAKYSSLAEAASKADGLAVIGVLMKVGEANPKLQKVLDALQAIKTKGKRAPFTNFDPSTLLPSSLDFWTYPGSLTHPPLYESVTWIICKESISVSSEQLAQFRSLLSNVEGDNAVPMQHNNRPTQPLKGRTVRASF

SMILES: COc1ccc(C2CC(c3ccccc3)=NN2c2ccc(S(N)(=O)=O)cc2)c(OC)c1 (stereo unspecified)
pKi [5]: 7.42

SMILES: O=C(NC1CCCCC1)NS(=O)(=O)c1ccc(N2N=C(c3ccc(Br)cc3)CC2c2ccc(F)cc2)cc1 (stereo unspecified)
Activity [6]: 16%

SMILES: O=C(Nc1ccccc1)NS(=O)(=O)c1ccc(N2N=C(c3ccc(Br)cc3)CC2c2ccc(F)cc2)cc1 (stereo unspecified)
Activity [6]: 16%

SMILES: CN1N=C2C(C[C@H]3[C@@H]4CCc5cc(O)ccc5[C@H]4CC[C@]23C)C1c1ccc(Br)cc1 (stereo partly specified)
pIC50 [15]: 7.37

SMILES: C[C@]12CC[C@@H]3c4ccc(O)cc4CC[C@H]3[C@@H]1CC1C2=NN(c2ccccc2)C1c1cccs1 (stereo partly specified)
pIC50 [15]: 7.37

SMILES: COc1ccc(C2CC(c3ccc(F)cc3)=NN2c2ccc(S(N)(=O)=O)cc2)c(OC)c1 (stereo unspecified)
pKi [5]: 7.42

SMILES: COc1ccc(C2CC(c3ccc(Br)cc3)=NN2c2ccc(S(N)(=O)=O)cc2)c(OC)c1 (stereo unspecified)
pKi [5]: 7.42

SMILES: COc1ccc(C2CC(c3ccc(Cl)cc3)=NN2c2ccc(S(N)(=O)=O)cc2)c(OC)c1 (stereo unspecified)
pKi [5]: 7.42

SMILES: Cc1ccc(C2=NN(c3ccc(S(=O)(=O)NC(=O)Nc4ccccc4)cc3)C(c3ccc(F)cc3)C2)cc1 (stereo unspecified)
Activity [6]: 16%

SMILES: Cc1ccc(C2CC(c3ccc(O)cc3)=NN2c2ccc(S(N)(=O)=O)cc2)cc1 (stereo unspecified)
CC50 [24]: 39.3 µM | CC50 [16]: 39.3 µM | CC50 [17]: 39.3 µM | CC50 [18]: 39.3 µM | CC50 [19]: 39.3 µM | CC50 [20]: 39.3 µM

SMILES: COc1cccc2c1C(=O)c1c(O)c3c(c(O)c1C2=O)C[C@@](O)(C(=O)CO)C[C@@H]3O[C@H]1C[C@H](N)[C@H](O)[C@H](C)O1 [DOXORUBICIN HYDROCHLORIDE]
GI50 [14]: 0.02 µM

Now from value to compound, other results behind:

pKi [1]: 5.61 | pKi [2]: 9.40 | pKi [3]: 7.75 | pKi [4]: 7.83
SMILES: CC(=O)N1N=C(c2ccc(OS(N)(=O)=O)cc2)CC1c1cc(Cl)ccc1Cl (stereo unspecified)

MIC [7]: 25 µg/mL (≈ 56.8 µM) | IC50 [8]: 23.3 µg/mL (≈ 52.9 µM)
SMILES: COc1ccc2cc(C3CC(c4cc(Br)ccc4O)=NO3)c3nnnn3c2c1 (stereo unspecified)

pKi [1]: 5.61 | pKi [2]: 9.40 | pKi [3]: 7.75 | pKi [4]: 7.83
SMILES: CC(=O)N1N=C(c2ccc(F)cc2)CC1c1cccc(OS(N)(=O)=O)c1 (stereo unspecified)

pKi [9]: 7.06 | pKi [10]: 8.26 | pKi [11]: 7.50
SMILES: COc1ccc(C2=NN(C(=O)c3ccc(S(N)(=O)=O)cc3)C(c3ccc(OC)cc3)C2)cc1 (stereo unspecified)

MIC50 [12]: 3.9 µg/mL | MIC50 [13]: 3.9 µg/mL
SMILES: COc1cc(C2CC(c3cccc(Nc4ccnc5cc(Cl)ccc45)c3)=NN2c2ccc(Cl)cc2)cc(OC)c1OC (stereo unspecified)
GI50 [14]: < 1 µM

pKi [1]: 5.61 | pKi [2]: 9.40 | pKi [3]: 7.75 | pKi [4]: 7.83
SMILES: CC(=O)N1N=C(c2ccc(OS(N)(=O)=O)cc2)CC1c1ccc([N+](=O)[O-])cc1 (stereo unspecified)

pKi [9]: 7.06 | pKi [10]: 8.26 | pKi [11]: 7.50
SMILES: NS(=O)(=O)c1ccc(C(=O)N2N=C(c3ccccc3)CC2c2ccc(Cl)cc2)cc1 (stereo unspecified)

pKi [21]: 7.27 | pKi [22]: 8.21
SMILES: NS(=O)(=O)c1ccc(N2N=C(c3ccc(O)cc3)CC2c2ccc([N+](=O)[O-])cc2)cc1 (stereo unspecified)
CC50 [16]: 39.3 µM | CC50 [17]: 39.3 µM | CC50 [18]: 39.3 µM | CC50 [19]: 39.3 µM | CC50 [20]: 39.3 µM

MIC [23]: 3.9 µg/mL (≈ 8.13 µM)
SMILES: COC(=O)C1N=NN(CC(=O)N2N=C(c3ccccc3)CC2c2ccc(OC)cc2)C1C(=O)OC (stereo unspecified)

MIC [23]: 3.9 µg/mL (≈ 7.08 µM)
SMILES: COC(=O)C1N=NN(CC(=O)N2N=C(c3nnn(Cc4ccccc4)c3C)CC2c2cccs2)C1C(=O)OC (stereo unspecified)

pKi [9]: 6.63 | pKi [22]: 8.21 | pKi [11]: 6.47
SMILES: NS(=O)(=O)c1ccc(N2N=C(c3ccc(O)cc3)CC2c2cccs2)cc1 (stereo unspecified)
CC50 [24]: 39.3 µM | CC50 [16]: 39.3 µM | CC50 [17]: 39.3 µM | CC50 [18]: 39.3 µM | CC50 [19]: 39.3 µM | CC50 [20]: 39.3 µM

MIC50 [12]: 3.9 µg/mL | MIC50 [13]: 3.9 µg/mL
SMILES: COc1cc(C2CC(c3ccc(Nc4ccnc5cc(Cl)ccc45)cc3)=NN2c2ccc(Cl)cc2)cc(OC)c1OC (stereo unspecified)
GI50 [14]: < 1 µM

pKi [1]: 5.61 | pKi [2]: 9.40 | pKi [3]: 7.75 | pKi [4]: 7.83
SMILES: CC(=O)N1N=C(c2ccc(OS(N)(=O)=O)cc2)CC1c1ccc(C(F)(F)F)cc1 (stereo unspecified)

pKi [21]: 7.27 | pKi [22]: 8.21
SMILES: NS(=O)(=O)c1ccc(N2N=C(c3ccc(O)cc3)CC2c2ccc(Cl)cc2Cl)cc1 (stereo unspecified)
CC50 [24]: 39.3 µM | CC50 [16]: 39.3 µM | CC50 [17]: 39.3 µM | CC50 [18]: 39.3 µM | CC50 [19]: 39.3 µM | CC50 [20]: 39.3 µM

pKi [1]: 5.61 | pKi [2]: 9.40 | pKi [3]: 7.75 | pKi [4]: 7.83
SMILES: CC(=O)N1N=C(c2ccc(OS(N)(=O)=O)cc2)CC1c1ccccc1 (stereo unspecified)
